Measured values: patent US9790202B2, “Anthranilamide derivatives as pesticides” (priority 2010, dated 2017)
Where two headings read alike, the source gives them in different places.

Key:
[1] = tested on: larvae of the mustard beetle (Phaedon cochleariae); assay: Phaedon test (PHAECO spray treatment), Use Example 6, comparison with prior art; assay type: in vivo; conditions: 168 h, 7 d
Protocol: (§1) Phaedon Test (PHAECO Spray Treatment)
Solvent: 78.0 parts by weight of acetone
1.5 parts by weight of dimethylformamide
(§2) Emulsifier: 0.5 part by weight of alkylaryl polyglycol ether
To produce an appropriate active ingredient formulation, 1 part by weight of active ingredient is mixed with the stated amounts of solvent and emulsifier, and the concentrate is diluted with emulsifier-containing water to the desired concentration. Leaf discs of Chinese cabbage (Brassica pekinensis) are sprayed with an active ingredient formulation of the desired concentration and, after drying, populated with larvae of the mustard beetle (Phaedon cochleariae).
After the desired period of time, the effect in % is determined. 100% means that all beetle larvae have been killed; 0% means that no beetle larvae have been killed.

adult Musca domestica = assay: Musca domestica test (MUSCDO); assay type: in vivo; conditions: 100 ppm, treated sponge, after 2 days
Protocol: Musca domestica Test (MUSCDO)
(§3) Solvent: dimethyl sulphoxide
(§4) To prepare an appropriate active ingredient formulation, 10 mg of active ingredient are mixed with 0.5 ml of dimethyl sulphoxide and the concentrate is diluted with water to the desired concentration.
Vessels containing a sponge treated with the active ingredient preparation of the desired concentration are populated with 10 adult Musca domestica.
After 2 days, the kill in % is determined 100% means that all flies have been killed; 0% means that no flies have been killed.

[2] = tested on: caterpillars of the armyworm (Spodoptera frugiperda); assay: Spodoptera frugiperda test (SPODFR spray treatment); assay type: in vivo; conditions: for pest or weed control at 100 g/ha: Spodoptera frugiperda, foliar, 168 h, read-out: efficacy in % (caterpillars killed)
Protocol: Spodoptera frugiperda Test (SPODFR Spray Treatment)
(§5) Solvent: 78.0 parts by weight of acetone 1.5 parts by weight of dimethylformamide
as §2
(§6) To produce an appropriate active ingredient formulation, 1 part by weight of active ingredient is mixed with the stated amounts of solvent and emulsifier, and the concentrate is diluted with emulsifier-containing water to the desired concentration.
Leaf discs of maize (Zea mays) are sprayed with an active ingredient formulation of the desired concentration and, after drying, populated with caterpillars of the armyworm (Spodoptera frugiperda).
After 7 days, the efficacy in % is determined 100% means that all caterpillars have been killed; 0% means that no caterpillars have been killed.

[3] = tested on: green peach aphid (Myzus persicae); assay: Myzus test (MYZUPE spray treatment); assay type: in vivo; conditions: foliar, 144 h, read-out: efficacy in % (aphids killed)
Protocol: Myzus Test (MYZUPE Spray Treatment)
Solvent: 78 parts by weight of acetone 1.5 parts by weight of dimethylformamide
as §2, §6
Leaf discs of Chinese cabbage (Brassica pekinensis) infested by all stages of the green peach aphid (Myzus persicae) are sprayed with an active ingredient formulation of the desired concentration.
After 6 days, the efficacy in % is determined 100% means that all aphids have been killed; 0% means that no aphids have been killed.

[4] = log P determination by HPLC on reversed-phase columns (C 18), acidic range; assay type: physicochemical
Protocol: The log P values reported in the table above and in the Preparation Examples were determined in accordance with EEC Directive 79/831 Annex V.A8 by HPLC (High Performance Liquid Chromatography) on reversed-phase columns (C 18), with the following methods:
The LC-MS determination in the acidic range is effected at pH 2.7 using 0.1% aqueous formic acid and acetonitrile (contains 0.1% formic acid) as eluents, linear gradient from 10% acetonitrile to 95% acetonitrile
The calibration was effected with unbranched alkan-2-ones (having 3 to 16 carbon atoms) with known log P values (log P values determined on the basis of the retention times by linear interpolation between two successive alkanones).

[5] = tested on: Lucilia cuprina 1st instar larvae; assay: Lucilia cuprina test (LUCICU); assay type: in vivo; conditions: 100 ppm, treated horsemeat, after 48 h
Protocol: Lucilia cuprina Test (LUCICU)
Species: Lucilia cuprina 1st larval stage (age: 24 hours)
as §3, §4
Vessels containing 1 cm^3 of horsemeat which had been treated with the active ingredient formulation are populated with about 20 Lucilia cuprina 1st instar larvae.
After 48 h, the kill in % is determined 100% means that all larvae have been killed; 0% means that no larvae have been killed.

[6] = tested on: larvae of the mustard beetle (Phaedon cochleariae); assay: Phaedon test (PHAECO spray treatment), Use Example 2; assay type: in vivo; conditions: foliar, 168 h, read-out: efficacy in % (beetle larvae killed)
Protocol: as §1, §5, §2, §6
Leaf discs of Chinese cabbage (Brassica pekinensis) are sprayed with an active ingredient formulation of the desired concentration and, after drying, populated with larvae of the mustard beetle (Phaedon cochleariae).
After 7 days, the efficacy in % is determined 100% means that all beetle larvae have been killed; 0% means that no beetle larvae have been killed.

[7] = 100 g/ha, spray on maize leaf discs, after 7 days
[8] = 100 g/ha, spray on Chinese cabbage leaf discs, after 7 days
[9] = 100 g/ha, spray on Chinese cabbage leaf discs, after 6 days
[10] = reversed-phase C18 HPLC column, pH 2.7, HPLC reversed-phase C 18, pH 2.7, 0.1% aqueous formic acid / acetonitrile, read-out: LOGP (HCOOH)

Structure (SMILES) | pest or weed control at 100 g/ha ([2]; in Zea mays) | pest or weed control at 100 g/ha ([3]; in Brassica rapa) | kill in % (larvae killed) [5] | pest or weed control at 100 g/ha ([6]; in Brassica rapa) | chromatographic logP ([4]; pH 2.7, LOGP (HCOOH)) | also measured
CNC(=O)c1cc(C)cc(C)c1NC(=O)c1cc(Cn2nnc(C(F)(F)F)n2)nn1-c1ncccc1Cl [Comparative Example, reference compound] | – | – | – | – | – | larval mortality at 20 g/ha [1]: 0%
CC(=O)c1cc(C)c(NC(=O)c2cc(Cn3nnc(C(F)(F)F)n3)nn2-c2ncccc2Cl)c(C(=O)NC(C)(C)C)c1 [Compound 1] | 100% | 100% | 100% | – | – | kill in % (flies killed) (adult Musca domestica): 100%; LOGP (HCOOH) ([4]; pH 2.7): 3.26
CNC(=O)c1cc(C(=O)OC)cc(C)c1NC(=O)c1cc(Cn2nnc(C(F)(F)F)n2)nn1-c1ncccc1Cl [Compound 2] | 100% | 90% | 100% | 100% | 2.77 | kill in % (flies killed) (adult Musca domestica): 90%
COC(=O)c1cc(C)c(NC(=O)c2cc(Cn3nnc(C(F)(F)F)n3)nn2-c2ncccc2Cl)c(C(=O)NC(C)C)c1 [Compound 3] | 100% | – | 100% | 100% | 3.21 | –
COC(=O)c1cc(C)c(NC(=O)c2cc(Cn3nnc(C(F)(F)F)n3)nn2-c2ncccc2Cl)c(C(=O)NC(C)(C)C)c1 [Compound 4] | 100% | – | 100% | 100% | 3.52 | kill in % (flies killed) (adult Musca domestica): 100%
COC(=O)c1cc(C)c(NC(=O)c2cc(Cn3nnc(C(F)(F)F)n3)nn2-c2ncccc2Cl)c(C(N)=O)c1 [Compound 5] | 100% | 90% | 100% | 100% | 2.56 | –
CC(=O)c1cc(C)c(NC(=O)c2cc(Cn3nnc(C(F)(F)F)n3)nn2-c2ncccc2Cl)c(C(=O)NC(C)(C)C)c1 [Compound 6] | – | – | 100% | – | 2.87 | kill in % (flies killed) (adult Musca domestica): 90%; efficacy in % (caterpillars killed) [2, 7]: 100%
C/C(=N\O)c1cc(C)c(NC(=O)c2cc(Cn3nnc(C(F)(F)F)n3)nn2-c2ncccc2Cl)c(C(=O)NC(C)(C)C)c1 [Compound 7] | 100% | 100% | 100% | – | 3 | –
CNC(=O)c1cc(C(N)=O)cc(C)c1NC(=O)c1cc(Cn2nnc(C(F)(F)F)n2)nn1-c1ncccc1Cl [Compound 17] | 100% | 100% | – | 100% | 1.94 | –
Cc1cc(C(N)=O)cc(C(=O)NC(C)(C)C)c1NC(=O)c1cc(Cn2nnc(C(F)(F)F)n2)nn1-c1ncccc1Cl [Compound 18] | 100% | 90% | – | 100% | 2.5 | –
Cc1cc(C(N)=O)cc(C(N)=O)c1NC(=O)c1cc(Cn2nnc(C(F)(F)F)n2)nn1-c1ncccc1Cl [Compound 21] | 100% | 80% | – | 100% | 1.83 | –
Cc1cc(C(N)=S)cc(C(=O)NC(C)(C)C)c1NC(=O)c1cc(Cn2nnc(C(F)(F)F)n2)nn1-c1ncccc1Cl [Compound 22] | 100% | 90% | – | 100% | 2.89 | –
CNC(=O)c1cc(C(N)=S)cc(C)c1NC(=O)c1cc(Cn2nnc(C(F)(F)F)n2)nn1-c1ncccc1Cl [Compound 23] | 100% | 100% | – | 100% | 2.26 | larval mortality at 20 g/ha [1]: 100%
CNC(=O)c1cc(C(N)=S)cc(C)c1NC(=O)c1cc(Cn2nnc(C(F)(F)F)n2)nn1-c1ccccc1Cl [Compound 24] | – | – | – | – | – | pest or weed control at 100 g/ha [6, 8]: 100%; pest or weed control at 100 g/ha [2, 7]: 100%; pest or weed control at 100 g/ha [3, 9]: 90%; chromatographic logP [4, 10]: 2.65
CNC(=O)c1cc(C(N)=S)cc(C)c1NC(=O)c1cc(Cn2nnc(C(F)(F)C(F)(F)F)n2)nn1-c1ncccc1Cl [Compound 25] | 100% | 100% | – | 100% | 2.64 | –
Cc1cc(C(N)=S)cc(C(=O)NC(C)(C)C)c1NC(=O)c1cc(Cn2nnc(C(F)(F)C(F)(F)F)n2)nn1-c1ncccc1Cl [Compound 26] | 100% | 100% | – | 100% | 3.26 | –
COC(=O)c1cc(C)c(NC(=O)c2cc(Cn3nnc(C(F)(F)C(F)(F)F)n3)nn2-c2ncccc2Cl)c(C(=O)NC(C)(C)C)c1 [Compound 27] | – | – | – | – | – | pest or weed control at 100 g/ha [6, 8]: 100%; pest or weed control at 100 g/ha [2, 7]: 100%; pest or weed control at 100 g/ha [3, 9]: 90%; chromatographic logP [4, 10]: 3.85
Cc1cc(C2OCCO2)cc(C(=O)NC(C)(C)C)c1NC(=O)c1cc(Cn2nnc(C(F)(F)F)n2)nn1-c1ncccc1Cl [Compound 33] | 100% | 100% | – | – | 3.22 | –
CNC(=O)c1cc(-n2cncn2)cc(C)c1NC(=O)c1cc(Cn2nnc(C(F)(F)F)n2)nn1-c1ncccc1Cl [Compound 36] | 100% | 100% | – | 100% | 2.25 | –
CNC(=O)c1cc(-n2cncn2)cc(C)c1NC(=O)c1cc(Cn2nnc(C(F)(F)C(F)(F)F)n2)nn1-c1ncccc1Cl [Compound 37] | 100% | 80% | – | 100% | – | –
